Assay results taken from patent US12350308B2, “Phosphorylcholine conjugates and uses thereof” (TPCERA LTD., priority 2013, dated 2025).
Where no end group is shown, it is not given here.

How the values were obtained:
[1] = test system: NZBxW/F1 lupus mice; experiment: Circulating anti-dsDNA antibodies in lupus mice treated with TD-PC (ELISA); format: in vivo; details: sera at 30 weeks, dilution 1:800; between groups incl. PBS
Procedure: Titers of circulating anti-dsDNA antibodies in the sera of control and treated mice were monitored during the development of lupus, and their levels were measured every 3 weeks. […] FIG. 23 presents the anti dsDNA antibodies titers in the sera at the age 30 weeks at a dilution of 1:800.

[2] = test system: NZBxW/F1 lupus mice; experiment: Survival of lupus mice treated with TD-PC (Kaplan-Meier); format: in vivo; details: already at week 24
Procedure: A main complication of lupus nephritis is a short survival time due to severe kidney failure. Therefore, the survival time of mice treated either with TD-PC or with PC, tuftsin derivative (SEQ ID NO: 25) or PBS (control) was analyzed.

[3] = test system: DBA/1 CIA mice; experiment: Arthritis score in mice with established CIA (treatment from day 16); format: in vivo; details: for mean arthritis score: day 35, s.c. 3 times a week, PBS 13.8±0.45; for average arthritis score: time 0 (treatment initiation, day 16 after disease induction), baseline
Source text: Rheumatoid Arthritis is a progressive joint deformation disease caused by severe inflammation. CIA mice were subjected to subcutaneous injections of TD-PC, tuftsin derivative (SEQ ID NO: 25), PC, a mix of TD and PC, or PBS, 3 times a week. […] Treatment started as day 16 after disease induction when disease symptoms were already notable. […] The significant reduction in arthritis score was illustrious from day 7 after treatment administration and lasted until day 35 (the day mice were sacrificed).

[4] = test system: splenocytes derived from CIA mice; experiment: Cytokine secretion in-vitro by splenocytes of mice with established CIA; format: in vivo; details: splenocyte culture fluids; for mean IL-10 level: PBS 298; for mean IL-6 level: PBS 840; for mean IL-1β level: PBS 883; for mean TNF-α level: PBS 1073; for mean IL-17 level: PBS 2170
Procedure: Secretion, in-vitro, of pro-inflammatory and anti-inflammatory cytokines by splenocytes derived from CIA mice treated with TD-PC, PBS, TD, PC, TD+PC or untreated mice was evaluated (FIGS. 32A-32D). The following cytokines secretions were examined: pro-inflammatory IL-1β (FIG. 32A), IL-17 (FIG. 32B), IL-6 (FIG. 32C), TNF-α (FIG. 32D) and anti-inflammatory IL-10 (FIG. 32E).

[5] = test system: female NZBxW/F1 lupus prone mice; experiment: Proteinuria onset and immune complex deposits in lupus prone mice treated with TD-PC; format: in vivo; details: s.c., prophylactic from week 14
Source text: To examine the potential protective effect of TD-PC (SEQ ID NO: 25 conjugated to PC), female NZBxW/F1 lupus prone mice received subcutaneous injections (s.c) of the TD-PC conjugate, phosphorylcholine (PC), tuftsin derivative (SEQ ID NO: 25) or PBS (control) via a prophylactic protocol starting at week 14, before the clinical onset of lupus (n ¼ 15 per group).

[6] = test system: CD4+CD25+FOXP3+ Treg cells; experiment: Treg expansion in splenocytes of mice with established CIA (FACS); format: in vivo; details: isolated splenocytes; PBS 1.4%
Source text: The frequency of CD4+CD25+FOXP3+ Treg cells subset in isolated splenocytes from mice treated with TPC, PBS, TD (SEQ ID NO: 25), PC, TD+PC or untreated is elucidated in FIGS. 33A and 33B. […] Representative data of the CD4+CD25+FOXP3+ levels in splenocytes derived from TD-PC, PBS, TD (SEQ ID NO: 25), PC and TD+PC treated mice and the untreated group, gating on CD4+ T cells are presented in FIG. 33B.

[7] = Dagan S et al., 1987; cited from earlier work
[8] = test system: IL-10+CD25+CD1d+ Breg cells; experiment: Breg expansion in splenocytes of mice with established CIA (FACS); format: in vivo; details: isolated splenocytes; PBS 0.4%
Procedure: The mean percentage of Breg cells in isolated splenocytes following treatment with TD-PC, PBS, TD (SEQ ID NO: 25), PC, TD+PC and None was measured within IL-10+CD25+CD1d+ subset. […] Representative data of IL-10+CD25+CD1d+ levels in splenocytes derived from TD-PC, PBS, TD (SEQ ID NO: 25), PC and TD+PC treated mice gating on IL-10+ B cells, are presented in FIG. 34A.

[9] = test system: CD4+CD25+FOXP3+ Tregs; experiment: Treg expansion in spleen cells of lupus mice treated with TD-PC (FACS); format: in vivo; details: gating on CD4+ T cells; PBS 4%
Source text: The percentage of CD4+CD25+FOXP3+ Tregs phenotype subset in spleen cells following treatment with TD-PC, tuftsin derivative (SEQ ID NO: 25), PC or PBS, is elucidated in FIGS. 25A-25B.

[10] = test system: Tregs CD4+CD25+FOXP3+; experiment: T regulatory cell profiling by FACS in splenocytes of lupus mice (PC-tuftsin study); format: in vivo; details: PBS 4±0.6 percent
Procedure: Mice, from age of 14 weeks, received subcutaneously PC-tuftsin at the concentration of 50 μg/0.1 ml per mouse (treatment; n=10) or PBS (control; n=10), three times a week. In the cytokines studies, the relative mRNA expression levels of pro-inflammatory cytokine IFNγ and anti-inflammatory cytokine TGFβ were analyzed by real time RT-PCR using LightCycler (Roche). Total RNA was isolated from splenocytes and was reverse-transcribed into cDNA by using Moloney Murine Leukemia Virus Reverse Transcriptase (Promega). The resulting cDNA was subjected to real-time RT-PCR in the presence of specific primers, according to the manufacturer's instructions (Table 2). The relative expression levels of IFNγ and TGFβ were normalized to β-actin levels.
Finally, a T regulatory cell (Tregs) profiling assay was performed in isolated splenocytes incubated with the following antibodies: anti-CD4^+FITC, anti-CD25^+APC and anti-FOXP3^+PE (eBioscience) and analyzed by FACS. Forward and side scatter gates adjusted to include all cells and to exclude debris (Becton Dickinson). Cells were gated on CD4+ cells, and for intracellular staining, the cells were incubated with a fixation solution, washed and resuspended in permeabilization solution (Serotec). Isotype control was used as reference.

[11] = test system: splenocytes of NZBW/F1 female mice; experiment: Cytokine secretion in-vitro by splenocytes of lupus mice treated with TD-PC; format: in vivo; details: vs PBS; for IL-17 secretion from splenocytes: in vitro; for IL-10 secretion by splenocytes / TGFβ production by splenocytes / reduction of splenocyte secretion of IFNγ: in-vitro
Procedure: NZBW/F1 female mice having lupus were treated with TD-PC (SEQ ID NO: 25 conjugated to PC) or the corresponding control treatments. Mice were sacrificed at week 30, and their splenocytes were studied in-vitro for the expression of pro-inflammatory cytokines (IFNγ, IL-17) and anti-inflammatory (TGFβ, IL-10) cytokines using RT-PCR. […] In contrast, TD-PC increased the mRNA expression of the anti-inflammatory cytokine TGFβ in the (p<0.001) compared to the mRNA expressed by splenocytes derived from PBS-treated mice (FIG. 24A).
However, a prominent increase in anti-inflammatory cytokines (TGFβ, IL-10) secretion in-vitro by splenocytes derived from TD-PC treated mice is illustrated in FIG. 24B. […] IFNγ secretion upon tuftsin derivative (SEQ ID NO: 25) or PC treatments was reduced by 2.5 and 1.5 times respectively (p<0.03 and p<0.04, respectively).

Compound	titers of circulating anti-dsDNA antibodies [1]	percentage of death number vs PBS injected mice [2]	mean arthritis score [3]	average arthritis score [3]	mean IL-10 level [4]	mean IL-6 level [4]	mean IL-1β level [4]	mean TNF-α level [4]	mean IL-17 level [4]	immune complex (IC) deposits in the mesangium / nephritis class [5]	mean percentage of CD4+CD25+FOXP3+ Treg cells [6]	effect on disease progression [7]	mean percentage of IL-10+CD25+CD1d+ Breg cells [8]	CD4+CD25+FOXP3+ Tregs in spleen cells [9]	enhancement in Tregs CD4+CD25+FOXP3+ expression level [10]	IL-17 secretion from splenocytes [11]	IL-10 secretion by splenocytes [11]	TGFβ production by splenocytes [11]	reduction of splenocyte secretion of IFNγ [11]
C[N+](C)(C)CCOP(=O)(O)O [PC, phosphorylcholine]	No statistically significant change	significant difference	14±0	3.4±1.1	300 pg/mL	795 pg/mL	860 pg/mL	1048 pg/mL	2179 pg/mL	did not diminish the development of strong mesangial damage	0.81%	inhibitory effect	0.44%	3%	did not cause any significant elevation	to a lower extent	did not have any effect	minimal effect	1.5 times
TKPRGY [TD]	No statistically significant change	significant difference	13.8±0.45	4.6±1.5	304 pg/mL	778 pg/mL	896 pg/mL	1079 pg/mL	2217 pg/mL	moderate but not significant effect	0.52%	–	0,5%	8%	–	Less significant inhibition	increased IL-10 secretion by splenocytes in-vitro but less significant	moderately enhanced	2.5 times
threonine-lysine-proline-arginine [tuftsin]	–	–	–	–	–	–	–	–	–	–	–	–	–	–	did not cause any significant elevation	–	–	–	–
